Patent US10670605B2, “Cysteine reactive probes and uses thereof” (The Scripps Research Institute, priority 2015, dated 2020)
Values belong to the compound of their own block, whether it stands above or below them.

Assays:
Assay in all cases: Competitive isoTOP-ABPP, cell lysates;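 for isoTOP-ABPP reactivity profile ratio, O00170 C122: Heavy/light ratio DMSO over fragment-treated so higher means more cysteine engagement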
Format in all cases: binding
PDIA6 C55 (Q15084) = biological target: T1, PDIA6 C55 (Q15084) (Homo sapiens, UniProt Q15084); conditions: for isoTOP-ABPP reactivity ratio, Q15084_C55 / isoTOP-ABPP reactivity profile ratio, Q15084_C55: 500 μm; for isoTOP-ABPP ratio Q15084_C55: 500 μM, invitro
T1 sequence (Q15084 20-440): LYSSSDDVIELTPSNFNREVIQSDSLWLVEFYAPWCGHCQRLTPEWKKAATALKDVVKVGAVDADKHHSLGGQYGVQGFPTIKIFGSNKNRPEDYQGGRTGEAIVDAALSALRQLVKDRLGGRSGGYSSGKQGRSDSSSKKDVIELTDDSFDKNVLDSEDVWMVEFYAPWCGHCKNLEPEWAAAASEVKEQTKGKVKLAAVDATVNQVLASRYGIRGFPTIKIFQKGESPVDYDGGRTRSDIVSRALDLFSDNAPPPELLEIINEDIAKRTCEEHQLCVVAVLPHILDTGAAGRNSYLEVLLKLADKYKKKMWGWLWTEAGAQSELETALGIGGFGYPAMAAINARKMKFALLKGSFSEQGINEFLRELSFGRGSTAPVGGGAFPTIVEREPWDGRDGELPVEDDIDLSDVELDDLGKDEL

XPO1 C528 (O14980) = XPO1 C528 (O14980) (Homo sapiens, UniProt O14980); conditions: for isoTOP-ABPP reactivity ratio, O14980_C528 / isoTOP-ABPP reactivity profile ratio, O14980_C528: 500 μm; for isoTOP-ABPP ratio (reactivity profile), O14980_C528: 500 μm in-vitro ramos
Sequence of XPO1 C528 (O14980) (O14980 whole entry, the tested form may be a part): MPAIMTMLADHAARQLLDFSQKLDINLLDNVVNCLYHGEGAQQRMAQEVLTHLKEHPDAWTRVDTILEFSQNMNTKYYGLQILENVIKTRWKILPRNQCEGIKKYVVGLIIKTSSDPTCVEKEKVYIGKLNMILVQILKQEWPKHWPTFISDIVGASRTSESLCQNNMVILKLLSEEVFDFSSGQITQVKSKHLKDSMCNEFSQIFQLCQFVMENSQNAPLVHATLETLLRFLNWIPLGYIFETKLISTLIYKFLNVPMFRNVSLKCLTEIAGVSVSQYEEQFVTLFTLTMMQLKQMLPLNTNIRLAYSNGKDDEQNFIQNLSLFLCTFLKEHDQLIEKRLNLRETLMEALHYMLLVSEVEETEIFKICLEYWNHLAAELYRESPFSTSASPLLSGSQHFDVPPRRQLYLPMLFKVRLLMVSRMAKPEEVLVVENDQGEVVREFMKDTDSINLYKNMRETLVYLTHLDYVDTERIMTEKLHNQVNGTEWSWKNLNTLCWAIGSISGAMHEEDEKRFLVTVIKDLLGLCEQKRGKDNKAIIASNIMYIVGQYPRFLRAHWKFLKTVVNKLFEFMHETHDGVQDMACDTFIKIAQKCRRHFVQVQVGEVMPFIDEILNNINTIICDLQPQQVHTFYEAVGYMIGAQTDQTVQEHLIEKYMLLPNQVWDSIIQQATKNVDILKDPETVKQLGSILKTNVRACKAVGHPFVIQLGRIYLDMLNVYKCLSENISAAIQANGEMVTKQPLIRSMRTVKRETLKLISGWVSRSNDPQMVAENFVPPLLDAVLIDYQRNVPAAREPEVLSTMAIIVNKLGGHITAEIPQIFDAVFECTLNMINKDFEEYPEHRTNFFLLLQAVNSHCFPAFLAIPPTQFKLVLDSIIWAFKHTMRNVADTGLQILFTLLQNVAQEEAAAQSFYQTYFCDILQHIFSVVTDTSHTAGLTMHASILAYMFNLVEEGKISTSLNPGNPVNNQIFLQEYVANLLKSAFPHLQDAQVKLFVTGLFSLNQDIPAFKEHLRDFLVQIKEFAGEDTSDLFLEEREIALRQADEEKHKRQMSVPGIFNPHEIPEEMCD

AIP C122 (O00170) = biological target: T2, AIP C122 (O00170) (Homo sapiens, UniProt O00170); conditions: for isoTOP-ABPP reactivity ratio, O00170_C122 / isoTOP-ABPP reactivity profile ratio, O00170_C122: 500 μm;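 for isoTOP-ABPP reactivity profile ratio, O00170 C122: Heavy/light ratio DMSO over fragment-treated so higher means more cysteine engagement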
T2 sequence (O00170 1-330): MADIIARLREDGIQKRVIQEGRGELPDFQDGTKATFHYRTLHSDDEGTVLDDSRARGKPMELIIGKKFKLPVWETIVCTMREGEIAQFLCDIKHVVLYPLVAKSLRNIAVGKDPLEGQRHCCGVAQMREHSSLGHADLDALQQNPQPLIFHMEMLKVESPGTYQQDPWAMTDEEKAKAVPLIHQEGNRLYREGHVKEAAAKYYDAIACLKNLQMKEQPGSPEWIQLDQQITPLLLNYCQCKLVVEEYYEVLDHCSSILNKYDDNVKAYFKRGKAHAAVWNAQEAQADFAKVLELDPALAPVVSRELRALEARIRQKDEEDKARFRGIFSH

IDH1 C269 (O75874) = IDH1 C269 (O75874) (Homo sapiens, UniProt O75874)
Sequence of IDH1 C269 (O75874) (O75874 whole entry): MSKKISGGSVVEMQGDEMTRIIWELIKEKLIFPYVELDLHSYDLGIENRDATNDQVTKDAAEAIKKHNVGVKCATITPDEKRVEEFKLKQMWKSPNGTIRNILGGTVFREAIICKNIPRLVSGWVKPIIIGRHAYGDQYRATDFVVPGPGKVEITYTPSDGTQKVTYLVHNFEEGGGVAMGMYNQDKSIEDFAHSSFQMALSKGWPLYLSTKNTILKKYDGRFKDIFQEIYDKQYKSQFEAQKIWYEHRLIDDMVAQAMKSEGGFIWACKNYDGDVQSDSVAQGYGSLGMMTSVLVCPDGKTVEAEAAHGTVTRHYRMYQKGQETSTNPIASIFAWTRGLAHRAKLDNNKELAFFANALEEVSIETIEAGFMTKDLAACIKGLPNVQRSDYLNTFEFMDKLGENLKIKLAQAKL

IDH2 C308 (P48735) = biological target: T3, IDH2 C308 (P48735) (Homo sapiens, UniProt P48735); conditions: for isoTOP-ABPP reactivity profile ratio, P48735_C308: 500 μm, in-vitro_ramos_231
T3 sequence (P48735 40-452): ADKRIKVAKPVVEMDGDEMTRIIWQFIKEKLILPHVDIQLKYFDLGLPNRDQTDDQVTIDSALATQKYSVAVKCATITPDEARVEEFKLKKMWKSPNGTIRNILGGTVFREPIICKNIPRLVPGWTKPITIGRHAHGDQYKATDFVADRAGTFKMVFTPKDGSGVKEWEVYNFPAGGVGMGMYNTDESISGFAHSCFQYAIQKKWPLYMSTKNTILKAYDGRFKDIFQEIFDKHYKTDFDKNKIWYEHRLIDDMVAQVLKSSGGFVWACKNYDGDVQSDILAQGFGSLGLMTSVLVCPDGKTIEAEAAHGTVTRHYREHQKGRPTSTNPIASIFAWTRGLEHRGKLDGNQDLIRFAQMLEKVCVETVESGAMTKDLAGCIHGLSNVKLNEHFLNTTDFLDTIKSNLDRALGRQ

STAT3 C259 (P40763) = STAT3 C259 (P40763) (Homo sapiens, UniProt P40763); conditions: for isoTOP-ABPP reactivity ratio, P40763_C259 / isoTOP-ABPP reactivity profile ratio, P40763_C259: 500 μm
Sequence of STAT3 C259 (P40763) (P40763 whole entry): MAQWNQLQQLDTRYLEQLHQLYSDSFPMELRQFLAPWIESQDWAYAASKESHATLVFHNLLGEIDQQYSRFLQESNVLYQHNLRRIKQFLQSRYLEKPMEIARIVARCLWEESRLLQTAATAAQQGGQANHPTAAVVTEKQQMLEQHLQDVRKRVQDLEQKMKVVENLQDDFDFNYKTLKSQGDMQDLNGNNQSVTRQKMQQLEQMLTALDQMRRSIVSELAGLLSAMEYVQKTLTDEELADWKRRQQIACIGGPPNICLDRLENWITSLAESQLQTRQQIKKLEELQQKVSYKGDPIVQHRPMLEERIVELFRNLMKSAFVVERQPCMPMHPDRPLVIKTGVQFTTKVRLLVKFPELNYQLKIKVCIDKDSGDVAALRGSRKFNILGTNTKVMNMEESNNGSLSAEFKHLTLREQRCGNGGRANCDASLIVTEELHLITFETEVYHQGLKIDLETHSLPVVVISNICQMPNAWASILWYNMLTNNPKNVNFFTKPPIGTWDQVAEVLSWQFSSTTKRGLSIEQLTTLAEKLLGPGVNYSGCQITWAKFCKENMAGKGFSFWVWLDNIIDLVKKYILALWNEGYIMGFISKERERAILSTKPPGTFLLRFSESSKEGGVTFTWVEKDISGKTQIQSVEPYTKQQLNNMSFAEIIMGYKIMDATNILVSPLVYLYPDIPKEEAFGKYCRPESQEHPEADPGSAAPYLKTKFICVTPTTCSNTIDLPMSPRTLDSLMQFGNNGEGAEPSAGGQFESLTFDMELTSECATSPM

Structure (SMILES): O=C(CCl)N(Cc1ccc(F)cc1)C12CC3CC(CC(C3)C1)C2 [compound 34]
isoTOP-ABPP reactivity ratio, Q15084_C55 (PDIA6 C55 (Q15084); in-vitro_ramos_231): 0.9
isoTOP-ABPP reactivity ratio, O14980_C528 (XPO1 C528 (O14980); in-vitro_ramos): 1.1
isoTOP-ABPP reactivity ratio, O00170_C122 (AIP C122 (O00170); in-vitro_ramos_231): 1.0

Structure (SMILES): COc1ccccc1OCCNC(=O)CCl [compound 28]
isoTOP-ABPP ratio (reactivity profile), Q15084_C55 (PDIA6 C55 (Q15084); 500 μm in-vitro ramos): 1.5
isoTOP-ABPP ratio (reactivity profile), Q15084_C55 (PDIA6 C55 (Q15084); 500 μm in-vitro ramos_231): 1.1
isoTOP-ABPP ratio (reactivity profile), P40763_C259 (STAT3 C259 (P40763); 500 μm in-vitro ramos): 1.1
isoTOP-ABPP ratio (reactivity profile), P40763_C259 (STAT3 C259 (P40763); 500 μm in-vitro ramos_231): 1.0
isoTOP-ABPP ratio (reactivity profile), O75874_C269 (IDH1 C269 (O75874); 500 μm in-vitro ramos_231): 1.1
isoTOP-ABPP ratio (reactivity profile), O00170_C122 (AIP C122 (O00170); 500 μm in-vitro ramos): 1.2
isoTOP-ABPP ratio (reactivity profile), O00170_C122 (AIP C122 (O00170); 500 μm in-vitro ramos_231): 0.9
isoTOP-ABPP ratio (reactivity profile), P48735_C308 (IDH2 C308 (P48735); 500 μm in-vitro ramos_231): 0.9

Structure (SMILES): CC(Br)C(=O)Nc1cc(C(F)(F)F)cc(C(F)(F)F)c1 (centres unmarked) [compound 24]
isoTOP-ABPP ratio (reactivity profile), Q15084_C55 (PDIA6 C55 (Q15084); 500 μm in-vitro ramos): 1.3
isoTOP-ABPP ratio (reactivity profile), P40763_C259 (STAT3 C259 (P40763); 500 μm in-vitro ramos): 1.7
isoTOP-ABPP ratio (reactivity profile), O14980_C528 (XPO1 C528 (O14980)): 20.0
isoTOP-ABPP ratio (reactivity profile), O75874_C269 (IDH1 C269 (O75874); 500 μm in-vitro ramos): 0.9
isoTOP-ABPP ratio (reactivity profile), O00170_C122 (AIP C122 (O00170); 500 μm in-vitro ramos): 1.3

Structure (SMILES): Cc1ccc(C=C(C#N)C(=O)NCCN2CCOCC2)cc1 [compound 41]
isoTOP-ABPP reactivity ratio, Q15084_C55 (PDIA6 C55 (Q15084); in-vitro_ramos): 0.8
isoTOP-ABPP reactivity ratio, Q15084_C55 (PDIA6 C55 (Q15084); in-vitro_ramos_231): 0.9
isoTOP-ABPP reactivity ratio, P40763_C259 (STAT3 C259 (P40763); in-vitro_ramos_231): 0.9
isoTOP-ABPP reactivity ratio, O14980_C528 (XPO1 C528 (O14980); in-vitro_ramos_231): 0.6
isoTOP-ABPP reactivity ratio, O75874_C269 (IDH1 C269 (O75874); 500 μm, in-vitro_ramos_231): 0.8
isoTOP-ABPP reactivity ratio, O00170_C122 (AIP C122 (O00170); in-vitro_ramos): 1.0
isoTOP-ABPP reactivity ratio, O00170_C122 (AIP C122 (O00170); in-vitro_ramos_231): 1.1

Structure (SMILES): O=C(CCl)NC(=O)NC12CC3CC(CC(C3)C1)C2 [compound 12]
isoTOP-ABPP ratio Q15084_C55 (PDIA6 C55 (Q15084); 231): 3.7
isoTOP-ABPP ratio Q15084_C55 (PDIA6 C55 (Q15084); ramos): 3.1
isoTOP-ABPP ratio O14980_C528 (XPO1 C528 (O14980); 500 μM, invitro, 231): 1.1
isoTOP-ABPP ratio, O00170_C122 (AIP C122 (O00170); 500 μM, invitro, ramos): 1.3
isoTOP-ABPP ratio, P48735_C308 (IDH2 C308 (P48735); 500 μM, invitro, 231): 1.7

Structure (SMILES): O=C(CCl)N1CCOCC1 [compound 22]
isoTOP-ABPP ratio (reactivity profile), Q15084_C55 (PDIA6 C55 (Q15084); 500 μm in-vitro ramos): 1.6
isoTOP-ABPP ratio (reactivity profile), Q15084_C55 (PDIA6 C55 (Q15084); 500 μm in-vitro ramos_231): 2.1
isoTOP-ABPP ratio (reactivity profile), P40763_C259 (STAT3 C259 (P40763); 500 μm in-vitro ramos_231): 2.0
isoTOP-ABPP ratio (reactivity profile), O75874_C269 (IDH1 C269 (O75874); 500 μm in-vitro ramos_231): 1.0
isoTOP-ABPP ratio (reactivity profile), O00170_C122 (AIP C122 (O00170); 500 μm in-vitro ramos): 1.1
isoTOP-ABPP ratio (reactivity profile), O00170_C122 (AIP C122 (O00170); 500 μm in-vitro ramos_231): 1.3

Structure (SMILES): CC(C)(C)c1cc(NC(=O)CCl)on1 [compound 32]
isoTOP-ABPP reactivity ratio, Q15084_C55 (PDIA6 C55 (Q15084); in-vitro_ramos): 20.0
isoTOP-ABPP reactivity ratio, Q15084_C55 (PDIA6 C55 (Q15084); in-vitro_ramos_231): 20.0
isoTOP-ABPP reactivity ratio, P40763_C259 (STAT3 C259 (P40763); in-vitro_ramos_231): 10.2
isoTOP-ABPP reactivity ratio, O14980_C528 (XPO1 C528 (O14980); in-vitro_ramos): 1.2
isoTOP-ABPP reactivity ratio, O14980_C528 (XPO1 C528 (O14980); in-vitro_ramos_231): 1.7
isoTOP-ABPP reactivity ratio, O00170_C122 (AIP C122 (O00170); in-vitro_ramos): 1.9
isoTOP-ABPP reactivity ratio, O00170_C122 (AIP C122 (O00170); in-vitro_ramos_231): 3.7

Structure (SMILES): O=C(/C=C/c1ccccc1)Nc1cc(C(F)(F)F)cc(C(F)(F)F)c1 [compound 26]
isoTOP-ABPP ratio (reactivity profile), Q15084_C55 (PDIA6 C55 (Q15084); 500 μm in-vitro ramos): 0.9
isoTOP-ABPP ratio (reactivity profile), O14980_C528 (XPO1 C528 (O14980)): 0.9
isoTOP-ABPP ratio (reactivity profile), O00170_C122 (AIP C122 (O00170); 500 μm in-vitro ramos): 0.9

Results, then the compound that gave them:

isoTOP-ABPP reactivity profile ratio, Q15084_C55 (PDIA6 C55 (Q15084); in-vitro_ramos_231): 1.3
isoTOP-ABPP reactivity profile ratio, O75874_C269 (IDH1 C269 (O75874); 500 μm, in-vitro_ramos_231): 20.0
isoTOP-ABPP reactivity profile ratio, O00170_C122 (AIP C122 (O00170); in-vitro_ramos_231): 2.3
isoTOP-ABPP reactivity profile ratio, P48735_C308 (IDH2 C308 (P48735)): 2.2
Structure (SMILES): O=C(CCl)N1CCc2cc(Br)ccc21 [compound 50]

isoTOP-ABPP reactivity profile ratio, Q15084_C55 (PDIA6 C55 (Q15084); in-vitro_ramos): 0.9
isoTOP-ABPP reactivity profile ratio, O00170_C122 (AIP C122 (O00170); in-vitro_ramos): 0.8
Structure (SMILES): N#CC(=Cc1ccc(-c2ccccc2Cl)o1)C(N)=O [compound 42]

isoTOP-ABPP reactivity profile ratio, Q15084_C55 (PDIA6 C55 (Q15084); in-vitro_ramos): 20.0
isoTOP-ABPP reactivity profile ratio, Q15084_C55 (PDIA6 C55 (Q15084); in-vitro_ramos_231): 20.0
isoTOP-ABPP reactivity profile ratio, O14980_C528 (XPO1 C528 (O14980); in-vitro_ramos_231): 4.6
isoTOP-ABPP reactivity profile ratio, O75874_C269 (IDH1 C269 (O75874); 500 μm, in-vitro_ramos_231): 0.8
isoTOP-ABPP reactivity profile ratio, O00170_C122 (AIP C122 (O00170); in-vitro_ramos): 2.1
isoTOP-ABPP reactivity profile ratio, P48735_C308 (IDH2 C308 (P48735)): 0.8
Structure (SMILES): COc1cc(NC(=O)CCl)cc(OC)c1 [compound 43]

isoTOP-ABPP reactivity profile ratio, Q15084_C55 (PDIA6 C55 (Q15084); in-vitro_ramos): 1.8
isoTOP-ABPP reactivity profile ratio, Q15084_C55 (PDIA6 C55 (Q15084); in-vitro_ramos_231): 1.1
isoTOP-ABPP reactivity profile ratio, P40763_C259 (STAT3 C259 (P40763); in-vitro_ramos_231): 2.2
isoTOP-ABPP reactivity profile ratio, O14980_C528 (XPO1 C528 (O14980); in-vitro_ramos_231): 1.3
isoTOP-ABPP reactivity profile ratio, O00170_C122 (AIP C122 (O00170); in-vitro_ramos): 1.4
isoTOP-ABPP reactivity profile ratio, P48735_C308 (IDH2 C308 (P48735)): 1.1
Structure (SMILES): O=C(CCl)Nc1ccc(-c2ccccc2)cc1 [compound 52]

isoTOP-ABPP reactivity profile ratio, Q15084_C55 (PDIA6 C55 (Q15084); in-vitro_ramos): 1.0
isoTOP-ABPP reactivity profile ratio, Q15084_C55 (PDIA6 C55 (Q15084); in-vitro_ramos_231): 0.9
isoTOP-ABPP reactivity profile ratio, P40763_C259 (STAT3 C259 (P40763); in-vitro_ramos): 1.9
isoTOP-ABPP reactivity profile ratio, O14980_C528 (XPO1 C528 (O14980); in-vitro_ramos): 0.8
isoTOP-ABPP reactivity profile ratio, O00170_C122 (AIP C122 (O00170); in-vitro_ramos): 0.9
isoTOP-ABPP reactivity profile ratio, P48735_C308 (IDH2 C308 (P48735)): 0.5
Structure (SMILES): C=CC(=O)N1CCC(Cc2ccccc2)CC1 [compound 53]
